Tests used:
[1] = biological target: T1, Serine/threonine-protein kinase PAK 4 (Homo sapiens, UniProt O96013); experiment: Binding affinity to N-terminal GST-tagged recombinant human PAK4 kinase domain expressed in Escherichia coli using KKRNRRLSVA as substrate preincubated for 10 mins followed by ATP addition measured after 60 mins by FRET-based Z'Lyte assay
Target sequence in this assay (O96013 whole entry, the tested form may be a part): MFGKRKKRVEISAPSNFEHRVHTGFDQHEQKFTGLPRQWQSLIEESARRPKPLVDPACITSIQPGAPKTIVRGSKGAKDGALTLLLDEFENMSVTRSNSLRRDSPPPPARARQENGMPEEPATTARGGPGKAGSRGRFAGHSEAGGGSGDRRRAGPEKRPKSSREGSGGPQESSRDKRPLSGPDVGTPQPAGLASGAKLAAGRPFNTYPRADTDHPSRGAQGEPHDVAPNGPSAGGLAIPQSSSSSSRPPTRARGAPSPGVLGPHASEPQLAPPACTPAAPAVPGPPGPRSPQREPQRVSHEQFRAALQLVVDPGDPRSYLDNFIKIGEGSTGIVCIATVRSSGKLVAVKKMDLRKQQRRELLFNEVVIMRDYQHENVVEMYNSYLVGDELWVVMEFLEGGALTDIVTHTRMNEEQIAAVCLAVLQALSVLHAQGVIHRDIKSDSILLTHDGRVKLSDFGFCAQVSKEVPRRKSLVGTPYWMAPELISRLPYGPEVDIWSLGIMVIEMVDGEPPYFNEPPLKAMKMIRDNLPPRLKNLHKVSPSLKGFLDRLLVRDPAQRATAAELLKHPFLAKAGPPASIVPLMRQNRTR

[2] = biological target: Serine/threonine-protein kinase PAK 1 (Homo sapiens, UniProt Q13153); experiment: Binding affinity to N-terminal GST-His-tagged recombinant human PAK1 kinase domain expressed in Escherichia coli BL21 using KKRNRRLSVA as sustrate preincubated for 10 mins followed by ATP addition measured after 60 mins by FRET-based Z'Lyte assay
Sequence of Serine/threonine-protein kinase PAK 1 (Q13153 whole entry, the tested form may be a part): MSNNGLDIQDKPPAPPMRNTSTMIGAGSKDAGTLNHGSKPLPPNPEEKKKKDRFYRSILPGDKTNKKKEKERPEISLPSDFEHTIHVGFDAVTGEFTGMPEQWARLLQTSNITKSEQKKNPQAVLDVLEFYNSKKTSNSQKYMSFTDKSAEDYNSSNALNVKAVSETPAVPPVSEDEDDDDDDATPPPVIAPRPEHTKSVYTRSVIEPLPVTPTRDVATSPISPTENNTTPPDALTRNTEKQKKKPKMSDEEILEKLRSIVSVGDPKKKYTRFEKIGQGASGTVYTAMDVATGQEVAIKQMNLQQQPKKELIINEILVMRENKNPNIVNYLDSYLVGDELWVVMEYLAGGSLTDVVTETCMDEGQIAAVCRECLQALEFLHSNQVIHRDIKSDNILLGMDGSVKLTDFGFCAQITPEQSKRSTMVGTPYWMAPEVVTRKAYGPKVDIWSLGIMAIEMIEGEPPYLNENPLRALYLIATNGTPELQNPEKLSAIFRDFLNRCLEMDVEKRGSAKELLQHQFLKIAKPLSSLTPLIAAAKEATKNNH

[3] = biological target: Mitogen-activated protein kinase kinase kinase 14 (Homo sapiens) (UniProt Q99558); experiment: Inhibition of NIK (unknown origin) at 1 uM
Sequence of Mitogen-activated protein kinase kinase kinase 14 (Homo sapiens) (Q99558 whole entry, looked up): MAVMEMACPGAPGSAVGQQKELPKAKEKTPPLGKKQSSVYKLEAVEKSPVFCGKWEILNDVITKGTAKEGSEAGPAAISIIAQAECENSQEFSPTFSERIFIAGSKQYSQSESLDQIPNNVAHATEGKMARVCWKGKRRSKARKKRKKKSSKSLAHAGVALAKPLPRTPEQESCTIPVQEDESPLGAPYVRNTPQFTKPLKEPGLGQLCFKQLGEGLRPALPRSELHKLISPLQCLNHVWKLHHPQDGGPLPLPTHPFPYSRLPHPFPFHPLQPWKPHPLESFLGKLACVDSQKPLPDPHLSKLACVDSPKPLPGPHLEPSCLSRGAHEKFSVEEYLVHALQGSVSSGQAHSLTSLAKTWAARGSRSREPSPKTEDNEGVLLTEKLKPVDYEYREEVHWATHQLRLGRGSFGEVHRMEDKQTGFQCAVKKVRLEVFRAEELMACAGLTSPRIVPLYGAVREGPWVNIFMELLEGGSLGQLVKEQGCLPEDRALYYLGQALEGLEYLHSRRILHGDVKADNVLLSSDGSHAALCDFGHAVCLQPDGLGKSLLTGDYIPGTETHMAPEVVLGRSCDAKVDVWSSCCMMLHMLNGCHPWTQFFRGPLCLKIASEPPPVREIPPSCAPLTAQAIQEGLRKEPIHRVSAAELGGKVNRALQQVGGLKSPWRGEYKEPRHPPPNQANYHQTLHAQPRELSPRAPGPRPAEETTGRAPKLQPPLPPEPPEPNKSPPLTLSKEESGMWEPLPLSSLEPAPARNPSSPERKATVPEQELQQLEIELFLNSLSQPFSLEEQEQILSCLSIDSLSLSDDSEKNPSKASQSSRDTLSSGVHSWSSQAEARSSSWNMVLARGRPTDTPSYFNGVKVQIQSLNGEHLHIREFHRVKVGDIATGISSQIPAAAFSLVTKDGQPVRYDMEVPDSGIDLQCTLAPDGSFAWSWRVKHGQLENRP

[4] = biological target: Mitogen-activated protein kinase kinase kinase kinase 4 (Homo sapiens) (UniProt O95819); experiment: Inhibition of MAP4K4 (unknown origin) at 1 uM
[5] = biological target: Misshapen-like kinase 1 (Homo sapiens) (UniProt Q8N4C8); experiment: Inhibition of MINK1 (unknown origin) at 1 uM
Sequence of Misshapen-like kinase 1 (Homo sapiens) (Q8N4C8 whole entry, looked up): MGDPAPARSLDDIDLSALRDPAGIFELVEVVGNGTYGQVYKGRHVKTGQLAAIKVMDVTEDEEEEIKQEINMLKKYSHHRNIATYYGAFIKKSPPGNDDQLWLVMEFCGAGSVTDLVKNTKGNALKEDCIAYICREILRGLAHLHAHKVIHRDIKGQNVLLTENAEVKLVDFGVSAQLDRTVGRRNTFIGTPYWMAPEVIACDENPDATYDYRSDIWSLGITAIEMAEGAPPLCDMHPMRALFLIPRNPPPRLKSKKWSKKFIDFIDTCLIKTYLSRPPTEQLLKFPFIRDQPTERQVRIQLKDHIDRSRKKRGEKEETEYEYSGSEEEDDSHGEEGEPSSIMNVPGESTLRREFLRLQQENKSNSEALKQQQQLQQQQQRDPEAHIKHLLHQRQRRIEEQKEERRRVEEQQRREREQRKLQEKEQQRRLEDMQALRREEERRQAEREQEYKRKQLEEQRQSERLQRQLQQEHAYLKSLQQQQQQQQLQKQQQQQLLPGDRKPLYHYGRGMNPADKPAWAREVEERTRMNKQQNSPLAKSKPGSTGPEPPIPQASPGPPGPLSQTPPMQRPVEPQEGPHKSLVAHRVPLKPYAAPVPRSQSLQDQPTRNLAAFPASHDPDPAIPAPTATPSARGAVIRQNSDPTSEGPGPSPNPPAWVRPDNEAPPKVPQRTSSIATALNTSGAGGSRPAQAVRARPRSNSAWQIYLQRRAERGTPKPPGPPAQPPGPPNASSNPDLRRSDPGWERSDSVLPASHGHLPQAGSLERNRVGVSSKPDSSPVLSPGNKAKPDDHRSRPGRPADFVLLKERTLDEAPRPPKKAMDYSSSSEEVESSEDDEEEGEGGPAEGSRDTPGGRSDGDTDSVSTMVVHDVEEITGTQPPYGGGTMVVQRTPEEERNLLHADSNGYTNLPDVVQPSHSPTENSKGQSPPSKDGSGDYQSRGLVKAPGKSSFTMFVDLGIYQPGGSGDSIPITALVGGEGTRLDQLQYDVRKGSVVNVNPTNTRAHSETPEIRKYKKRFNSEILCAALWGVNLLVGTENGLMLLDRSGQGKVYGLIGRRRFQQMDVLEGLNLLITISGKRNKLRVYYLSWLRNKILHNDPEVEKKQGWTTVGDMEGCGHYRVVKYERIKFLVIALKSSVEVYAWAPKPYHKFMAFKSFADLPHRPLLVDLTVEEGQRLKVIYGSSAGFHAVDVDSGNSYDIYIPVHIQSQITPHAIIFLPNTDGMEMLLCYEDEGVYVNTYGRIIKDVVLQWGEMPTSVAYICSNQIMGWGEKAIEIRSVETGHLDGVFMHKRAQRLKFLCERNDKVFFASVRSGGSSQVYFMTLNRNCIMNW

[6] = biological target: T2, Tyrosine-protein kinase JAK3 (Homo sapiens) (UniProt P52333); experiment: Inhibition of JAK3 (unknown origin) at 1 uM
T2 sequence (whole entry): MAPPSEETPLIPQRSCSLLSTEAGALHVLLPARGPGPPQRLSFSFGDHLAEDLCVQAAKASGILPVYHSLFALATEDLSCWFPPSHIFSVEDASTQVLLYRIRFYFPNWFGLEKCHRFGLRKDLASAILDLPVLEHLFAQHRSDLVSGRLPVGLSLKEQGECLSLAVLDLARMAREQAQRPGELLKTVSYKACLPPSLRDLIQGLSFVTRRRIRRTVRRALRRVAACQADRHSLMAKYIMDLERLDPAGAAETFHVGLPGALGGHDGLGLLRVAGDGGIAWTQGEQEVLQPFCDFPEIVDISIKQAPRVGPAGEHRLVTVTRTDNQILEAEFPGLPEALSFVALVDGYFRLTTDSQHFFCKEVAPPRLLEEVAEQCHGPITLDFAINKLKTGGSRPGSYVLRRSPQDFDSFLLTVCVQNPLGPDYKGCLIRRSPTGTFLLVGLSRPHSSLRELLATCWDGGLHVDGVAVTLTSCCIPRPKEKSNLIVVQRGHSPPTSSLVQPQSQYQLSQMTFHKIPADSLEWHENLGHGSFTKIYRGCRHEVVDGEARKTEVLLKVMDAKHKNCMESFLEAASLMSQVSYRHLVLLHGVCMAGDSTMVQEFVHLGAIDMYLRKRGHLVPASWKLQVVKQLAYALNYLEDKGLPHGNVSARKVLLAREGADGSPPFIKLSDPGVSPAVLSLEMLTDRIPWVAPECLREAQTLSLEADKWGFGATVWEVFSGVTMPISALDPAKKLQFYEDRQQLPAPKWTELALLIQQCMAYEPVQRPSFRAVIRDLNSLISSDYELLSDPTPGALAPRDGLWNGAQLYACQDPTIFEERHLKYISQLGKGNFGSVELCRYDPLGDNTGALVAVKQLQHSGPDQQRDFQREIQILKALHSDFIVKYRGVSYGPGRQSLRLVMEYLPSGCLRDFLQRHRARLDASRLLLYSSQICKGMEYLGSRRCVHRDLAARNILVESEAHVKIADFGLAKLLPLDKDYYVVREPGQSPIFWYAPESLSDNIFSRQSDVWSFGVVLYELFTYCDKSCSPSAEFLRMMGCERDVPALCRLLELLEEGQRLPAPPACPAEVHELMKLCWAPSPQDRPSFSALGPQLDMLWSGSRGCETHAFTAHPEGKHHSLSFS

[7] = biological target: Mitogen-activated protein kinase kinase kinase kinase 5 (Homo sapiens) (UniProt Q9Y4K4); experiment: Inhibition of KHS1 (unknown origin) at 1 uM
Sequence of Mitogen-activated protein kinase kinase kinase kinase 5 (Homo sapiens) (Q9Y4K4 whole entry, looked up): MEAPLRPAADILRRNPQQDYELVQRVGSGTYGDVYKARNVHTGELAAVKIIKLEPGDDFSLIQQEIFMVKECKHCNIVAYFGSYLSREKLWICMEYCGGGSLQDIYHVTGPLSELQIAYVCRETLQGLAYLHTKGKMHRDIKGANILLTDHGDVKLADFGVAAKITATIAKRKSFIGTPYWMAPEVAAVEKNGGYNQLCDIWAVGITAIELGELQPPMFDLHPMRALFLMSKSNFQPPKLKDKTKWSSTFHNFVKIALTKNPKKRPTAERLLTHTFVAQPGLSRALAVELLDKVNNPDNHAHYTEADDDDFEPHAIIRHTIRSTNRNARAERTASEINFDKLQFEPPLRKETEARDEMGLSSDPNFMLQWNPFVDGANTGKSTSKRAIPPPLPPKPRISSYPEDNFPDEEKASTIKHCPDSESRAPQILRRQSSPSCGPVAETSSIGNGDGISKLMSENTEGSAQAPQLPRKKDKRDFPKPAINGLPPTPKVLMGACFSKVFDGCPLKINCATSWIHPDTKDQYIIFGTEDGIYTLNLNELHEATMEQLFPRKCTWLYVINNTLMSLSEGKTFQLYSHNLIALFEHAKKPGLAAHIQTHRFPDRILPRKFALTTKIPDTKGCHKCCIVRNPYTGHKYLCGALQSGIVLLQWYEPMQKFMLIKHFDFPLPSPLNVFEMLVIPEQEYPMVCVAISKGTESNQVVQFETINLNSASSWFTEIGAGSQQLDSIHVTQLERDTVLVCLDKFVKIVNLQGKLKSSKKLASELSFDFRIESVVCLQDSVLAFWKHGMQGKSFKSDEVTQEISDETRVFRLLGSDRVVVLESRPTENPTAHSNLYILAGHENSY

[8] = biological target: T1, Serine/threonine-protein kinase PAK 4; experiment: Inhibition of PAK4 (unknown origin) at 1 uM
Target sequence in this assay (O96013 whole entry, looked up, the tested form may be a part): as the sequence (O96013 whole entry, the tested form may be a part) above

Row | Ki [1] | Ki [2] | Structure (SMILES) | also measured
1 | > 2900 nM | > 4500 nM | Cc1nc2ccc(C#CC(C)(C)CO)cc2n1-c1ncnc(N)n1 | –
2 | 500 nM | 15300 nM | Cc1nc2ccc(C#CC(C)(C)O)cc2n1-c1ncnc(N)n1 | inhibition [3]: 68%; inhibition [4]: 31%; inhibition [5]: 27%; inhibition [6]: 2%; inhibition [7]: 81%; inhibition [8]: 34%
3 | > 2900 nM | > 4500 nM | Cc1nc2ccc(C#CC(C)(O)CO)cc2n1-c1ncnc(N)n1 (racemic) | –
4 | 190 nM | > 4500 nM | Cc1nc2ccc(C#C[C@@]3(O)C[C@@H]4CC[C@H]3C4)cc2n1-c1ncnc(N)n1 (racemic) | –
5 | 600 nM | > 4500 nM | Cc1nc2ccc(C#C[C@@](C)(O)c3nccs3)cc2n1-c1ncnc(N)n1 | –
6 | 32 nM | > 4500 nM | Cc1cc([C@](C)(O)C#Cc2ccc3nc(C)n(-c4ncnc(N)n4)c3c2)no1 | –
7 | 670 nM | > 4500 nM | Cc1nc2ccc(C#CC(C)(O)CC3CC3)cc2n1-c1ncnc(N)n1 (racemic) | –

Row | Structure (SMILES) | Ki [1] | Ki [2] | also measured
8 | CC(C)(O)C#Cc1ccc2cnn(-c3ccnc(N)n3)c2c1 | 120 nM | > 4500 nM | –

— ChEMBL document CHEMBL3124809, “Back pocket flexibility provides group II p21-activated kinase (PAK) selectivity for type I 1/2 kinase inhibitors” (J Med Chem, 2014)
